Data on five molecules can be found in US6110907A, “Synthesis of platinum complexes and uses thereof” (Dalian Institute of Chemical Physics, Chinese Academy of …, priority 1998, dated 2000).

For data set [1], the system named is CNE-2. Nature of the data set: In vitro antitumor activity, MTT assay, CNE-2. It counts as cell-based, human. The following applies: CNE-2, 48 hours. The method, then: (§1) Drugs: Drugs to be tested were dissolved in complete medium at twice the highest concentration to be used, followed by filter (0.22 μm) sterilization. A series of log dilutions were made of each drug solution using complete medium and stored at r.t. until use.
(§2) Cells: L1210, H-522 (human lung), HT-29 (human colon), Hela, CC3 (human cervix) were obtained from the American Type Culture Collection (ATCC). CNE-1 and CNE-2 (human nasopharyngeal) were obtained from The Hong Kong Cancer Institute, The Chinese University of Hong Kong.
(§3) In vitro drug exposure: Trypsinised cells were adjusted to a concentration of 3×10^4 cells/ml in complete medium and for each drug to be tested, 0.1 ml of the cell suspension was added to each of 48 wells of a 96-well microculture plate. The plate was then incubated at standard conditions for 24 hours in order to allow the cells to attach to the bottom of the well. To each well of the control cultures, 0.1 ml of complete medium was added. […]
(§4) MTT assay: The MTT (tetrazolium) assay was used to determine the growth-inhibitory effects of different drugs. […] The amount of reduced MTT was determined by spectrophotometric means (540 nm).
(§5) Data analysis: The mean OD for all 48 control wells was determined. For each concentration of each drug, the mean OD of the 6 wells was determined and the "Percent of Control" values were determined and plotted. […]

In data set [2] the test system is Hela. In words: In vitro antitumor activity, MTT assay, Hela. The data set is classed as cell-based, human. To be noted: 48 hours. The protocol:
as §1, §2, §3, §4, §5

Data set [3] relates to L1210. In words: In vitro antitumor activity, MTT assay, L1210. The data set is classed as cell-based, mouse. To be noted: L1210, 48 hours. The protocol: as §1, §2, §3, §4, §5
Data set [4] relates to H522. In words: In vitro antitumor activity, MTT assay, H522. The data set is classed as cell-based, human. To be noted: H522, 48 hours. The protocol: as §1, §2, §3, §4, §5
In data set [5] the test system is CC3. Nature of the data set: In vitro antitumor activity, MTT assay, CC3. It counts as cell-based, human. The following applies: CC3, 48 hours. The method, then:
as §1, §2, §3, §4, §5

Data set [6] relates to HT29. In words: In vitro antitumor activity, MTT assay, HT-29. It counts as cell-based, human. The following applies: HT29, 48 hours. The protocol:
as §1, §2, §3, §4, §5

For data set [7], the system named is CNE-1. Nature of the data set: In vitro antitumor activity, MTT assay, CNE-1. The data set is classed as cell-based, human. The following applies: CNE-1, 48 hours. The method, then: as §1, §2, §3, §4, §5
In data set [8] the test system is liver. Nature of the data set: 5-Day Parenteral Acute Toxicity Trial, liver histopathology. The data set is classed as in vivo, ICR mice. The following applies: 1/12 LD10/day for 5 days, i.p., per animal. The protocol:
(§6) Conditions: Temperature: 22° C.±3° C.; Relative humidity: 30-70 T; Light: 12:12. Animals were housed in twos or threes depending on group numbers.
(§7) Histopathology of liver and kidney were examined for each animal.

For data set [9] the following is noted: cited from earlier work.
For data set [10], the system named is kidney. Nature of the data set: 5-Day Parenteral Acute Toxicity Trial, kidney histopathology. The data set is classed as in vivo, ICR mice. The following applies: 1/12 LD10/day for 5 days, i.p., per animal. The method, then: as §6, §7
The conditions of data set [11]: background statement; cited from earlier work.
For data set [12], the system named is ICR mice. In words: Toxicity testing, LD50 (Example 14). It counts as in vivo. The following applies: in 0.9% NaCl, observed for 6 days. The method, then: The toxicity tests used ICR mice (30-40 g), each group containing 12-13 mice. […] The test and control compounds were dissolved in 0.9% NaCl to an appropriate concentration.
In data set [13] the test system is ICR mice. Nature of the data set: In vivo toxicity, LD50 (second series). To be noted: male, intraperitoneal. The protocol:
Animals: ICR mice, male, 30 g, 10 animals per test/control group.
Dose: Test/control drug were dissolved in normal saline. Four doses, each increasing by 10-20% were injected intraperitoneally into mice. 10 mice were used for each dose point.

Where two headings read alike, the source gives them in different places.

Consider `N.N.[Cl][Pt][Cl]` [Cisplatin, cisplatin], for which the IC50 stood at 6.04 µM in data set [1]; 8.56 µM in [2]; 1.63 µM in data set [3]; 12.1 µM in [4]; 6.25 µM in [5]; 38.3 µM in data set [6]. Moreover, the concentration for half-maximal inhibition (IC50) in data set [7] was found to be 6.36 µM.
`C[C@@]12C(=O)OC(=O)[C@]1(C)[C@H]1CC[C@@H]2O1` [Cantharidin, cantharidin]: the “LIVER Normal” value in [8] (female) and in [8] (male) was “√” throughout. In addition, the side effects entry was “nausea and vomiting, dysphagia, hematemesis, gross hematuria and dysuria” in [9] (background statement); “severe side-effects such as nausea, vomiting and diarrhoea” in [9] (background statement, listed as cantharidin). Also, the “KIDNEY Normal” value in [10] (female) and in [10] (male) was “√” in each case. Also, the LD50 in [11] is 1 mg/kg.
For the molecule `N.N.O=C([O-])C1(C(=O)[O-])CCC1.[Pt+2]` [Carboplatin, carboplatin], the half-inhibitory concentration (IC50) in [1] was found to be 126 µM; in [2] it was 244 µM; in data set [3], 48.8 µM; in data set [4], 287 µM; in data set [5], 205 µM; in data set [6], 734 µM. For the same molecule, the IC50 in [7] is 174 µM. Also, the “LIVER Normal” value in [8] (female) and in [8] (male) was “√” throughout. Moreover, the LD50 came out at 190 mg/kg in data set [12] and 203.20 mg/kg in data set [13]. Besides, the side effects entry in [9] (in vivo) is “strongly irritates the gastrointestinal tract”. Besides, the “KIDNEY Normal” value in [10] (female) and in data set [10] (male) was “√” throughout. For the same molecule, where the note is “pH 6”, the Solubility in water was 10000 µg/mL. This molecule returned a Solubility (water) of around 10000 µg/mL.
With `O=C1OC(=O)C2C3CCC(O3)C12` (centres unmarked) [demethyl cantharidin], the LD50 in data set [11] was 4 mg/kg.
On to `O=C(O)C1C2CCC(O2)C1C(=O)O` (centres unmarked) [corresponding dicarboxylic acid], for which the LD50 in data set [11] is on record as 14 mg/kg.
